The molecules below were run against T1, HIV-integrase (Human immunodeficiency virus type 1 group M subtype B, UniProt P12497) (assay: HIV-Integrase Inhibition Activity (SPA bead strand-transfer assay)). Details: Table 1; read-out: Activity (HIV-integrase inhibition, IC50 class).
T1 construct: Recombinant integrase (0.26 ng) was incubated with the beads
Format: biochemical
Procedure, shortened: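 Strand-transfer read-out: CPM from P33-labelled target DNA (0.1 fmol) joined to bead-bound biotin substrate DNA (5 pmole), with EDTA stop at 10 mM final. Integrase (0.26 ng) prebound to streptavidin SPA beads 90 min, 37° C, and washed before adding inhibitor.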

Structure (SMILES) | IC50
CC1(C)OCCn2c1nc(C(=O)NCc1ccccc1N1CCOC1=O)c(O)c2=O [Example 122, Pyrimido[2,1-c][1,4]oxazine-2-carboxamide, 4,6,7,9-tetrahydro-3-hydroxy-9,9-dimethyl-4-oxo-N-[[2-(2-oxo-3-oxazolidinyl)phenyl]methyl]-] | 2 to 100 nM
CC1(C)OCCCn2c1nc(C(=O)NCc1ccc(F)cc1)c(O)c2=O [Example 44, 6H-Pyrimido[2,1-c][1,4]oxazepine-2-carboxamide, N-[(4-fluorophenyl)methyl]-4,7,8,10-tetrahydro-3-hydroxy-10,10-dimethyl-4-oxo-] | 2 to 100 nM
CC(=O)OC[C@H]1CCC(=O)N1c1cc(F)ccc1CNC(=O)c1nc2n(c(=O)c1O)CCOC2(C)C [Example 129, Pyrimido[2,1-c][1,4]oxazine-2-carboxamide, N-[[2-[(2R)-2-[(acetyloxy)methyl]-5-oxo-1-pyrrolidinyl]-4-fluorophenyl]methyl]-4,6,7,9-tetrahydro-3-hydroxy-9,9-dimethyl-4-oxo-] | 2 to 100 nM
CON(Cc1ccc(F)cc1)C(=O)c1nc2n(c(=O)c1O)CCOC2(C)C [Example 214, Pyrimido[2,1-c][1,4]oxazine-2-carboxamide, N-[(4-fluorophenyl)methyl]-4,6,7,9-tetrahydro-3-hydroxy-N-methoxy-9,9-dimethyl-4-oxo-] | > 1000 nM
CC1(C)OCCn2c1nc(C(=O)NCc1ccc(N3CCOCC3)cc1)c(O)c2=O [Example 253, Pyrimido[2,1-c][1,4]oxazine-2-carboxamide, 4,6,7,9-tetrahydro-3-hydroxy-9,9-dimethyl-N-[[4-(4-morpholinyl)phenyl]methyl]-4-oxo-] | > 1000 nM
CC1(C)OCCn2c1nc(C(=O)NCc1cccc(-n3cccn3)c1)c(O)c2=O [Example 252, Pyrimido[2,1-c][1,4]oxazine-2-carboxamide, 4,6,7,9-tetrahydro-3-hydroxy-9,9-dimethyl-4-oxo-N-[[3-(1H-pyrazol-1-yl)phenyl]methyl]-] | 100 to 1000 nM
Cc1ccc(CNC(=O)c2nc3n(c(=O)c2O)CCOC3(C)C)cc1F [Example 248, Pyrimido[2,1-c][1,4]oxazine-2-carboxamide, N-[(3-fluoro-4-methylphenyl)methyl]-4,6,7,9-tetrahydro-3-hydroxy-9,9-dimethyl-4-oxo-] | 2 to 100 nM
Cc1ccc(CNC(=O)c2nc3n(c(=O)c2O)CCOC3(C)C)cc1 [Example 240, Pyrimido[2,1-c][1,4]oxazine-2-carboxamide, 4,6,7,9-tetrahydro-3-hydroxy-9,9-dimethyl-N-[(4-methylphenyl)methyl]-4-oxo-] | 2 to 100 nM
Cc1cc(CNC(=O)c2nc3n(c(=O)c2O)CCOC3C(C)C)ccc1F (stereo not drawn) [Example 18, Pyrimido[2,1-c][1,4]oxazine-2-carboxamide, N-[(4-fluoro-3-methylphenyl)methyl]-4,6,7,9-tetrahydro-3-hydroxy-9-(1-methylethyl)-4-oxo-] | 2 to 100 nM
COP(=O)(OC)c1cc(F)ccc1CNC(=O)c1nc2n(c(=O)c1O)CCOC2(C)C [Example 281, Phosphonic acid, [5-fluoro-2-[[[(4,6,7,9-tetrahydro-3-hydroxy-9,9-dimethyl-4-oxopyrimido[2,1-c][1,4]oxazin-2-yl)carbonyl]amino]methyl]phenyl]-, dimethyl ester] | 2 to 100 nM
CC1(C)OCCn2c1nc(C(=O)NCc1ccc(F)cc1C(=O)NC1CC1)c(O)c2=O [Example 50, Pyrimido[2,1-c][1,4]oxazine-2-carboxamide, N-[[2-[(cyclopropylamino)carbonyl]-4-fluorophenyl]methyl]-4,6,7,9-tetrahydro-3-hydroxy-9,9-dimethyl-4-oxo-] | 2 to 100 nM
CC1(C)OCCn2c1nc(C(=O)NCc1ccccc1-c1ccsc1)c(O)c2=O [Example 179, Pyrimido[2,1-c][1,4]oxazine-2-carboxamide, 4,6,7,9-tetrahydro-3-hydroxy-9,9-dimethyl-4-oxo-N-[[2-(3-thienyl)phenyl]methyl]-] | 2 to 100 nM
Cc1cc(-c2cc(F)ccc2CNC(=O)c2nc3n(c(=O)c2O)CCOC3(C)C)on1 [Example 210, Pyrimido[2,1-c][1,4]oxazine-2-carboxamide, N-[[4-fluoro-2-(3-methyl-5-isoxazolyl)phenyl]methyl]-4,6,7,9-tetrahydro-3-hydroxy-9,9-dimethyl-4-oxo-] | 2 to 100 nM
CC1(C)OCCn2c1nc(C(=O)NCc1ccc(F)cc1-n1cnc(C(=O)NS(=O)(=O)c3ccc(F)cc3)n1)c(O)c2=O [Example 68, Pyrimido[2,1-c][1,4]oxazine-2-carboxamide, N-[[4-fluoro-2-[3-[[[(4-fluorophenyl)sulfonyl]amino]carbonyl]-1H-1,2,4-triazol-1-yl]phenyl]methyl]-4,6,7,9-tetrahydro-3-hydroxy-9,9-dimethyl-4-oxo-] | 2 to 100 nM
CC1(C)OCCn2c1nc(C(=O)NCc1ccc(F)cc1Cl)c(O)c2=O [Example 36, Pyrimido[2,1-c][1,4]oxazine-2-carboxamide, N-[(2-chloro-4-fluorophenyl)methyl]-4,6,7,9-tetrahydro-3-hydroxy-9,9-dimethyl-4-oxo-] | 2 to 100 nM
CC1(C)OCCn2c1nc(C(=O)NCc1ccccc1-c1cnn(Cc3ccccc3)c1)c(O)c2=O [Example 155, Pyrimido[2,1-c][1,4]oxazine-2-carboxamide, 4,6,7,9-tetrahydro-3-hydroxy-9,9-dimethyl-4-oxo-N-[[2-[1-(phenylmethyl)-1H-pyrazol-4-yl]phenyl]methyl]-] | 2 to 100 nM
CN(C)C(=O)c1cccc(-c2ccccc2CNC(=O)c2nc3n(c(=O)c2O)CCOC3(C)C)c1 [Example 171] | 2 to 100 nM
CNS(=O)(=O)c1cc(F)ccc1CNC(=O)c1nc2n(c(=O)c1O)CCOC2(C)C [Example 109, Pyrimido[2,1-c][1,4]oxazine-2-carboxamide, N-[[4-fluoro-2-[(methylamino)sulfonyl]phenyl]methyl]-4,6,7,9-tetrahydro-3-hydroxy-9,9-dimethyl-4-oxo-] | 2 to 100 nM
CC1(C)OCCn2c1nc(C(=O)NCc1cccc(F)c1F)c(O)c2=O [Example 238, Pyrimido[2,1-c][1,4]oxazine-2-carboxamide, N-[(2,3-difluorophenyl)methyl]-4,6,7,9-tetrahydro-3-hydroxy-9,9-dimethyl-4-oxo-] | 2 to 100 nM
COc1cc(CNC(=O)c2nc3n(c(=O)c2O)CCOC3(C)C)ccc1F [Example 245, Pyrimido[2,1-c][1,4]oxazine-2-carboxamide, N-[(4-fluoro-3-methoxyphenyl)methyl]-4,6,7,9-tetrahydro-3-hydroxy-9,9-dimethyl-4-oxo-] | 2 to 100 nM
CC1(C)OCCn2c1nc(C(=O)NCc1ccc(F)cc1C(=O)N1CCOCC1)c(O)c2=O [Example 52, Pyrimido[2,1-c][1,4]oxazine-2-carboxamide, N-[[4-fluoro-2-(4-morpholinylcarbonyl)phenyl]methyl]-4,6,7,9-tetrahydro-3-hydroxy-9,9-dimethyl-4-oxo-] | 2 to 100 nM
CCC1(CC)OCCn2c1nc(C(=O)NCc1ccc(F)cc1)c(O)c2=O [Example 42, Pyrimido[2,1-c][1,4]oxazine-2-carboxamide, 9,9-diethyl-N-[(4-fluorophenyl)methyl]-4,6,7,9-tetrahydro-3-hydroxy-4-oxo-] | 2 to 100 nM
CC1(C)OCCn2c1nc(C(=O)NCc1ccc(F)cc1OCC(=O)N1CCOCC1)c(O)c2=O [Example 46, Pyrimido[2,1-c][1,4]oxazine-2-carboxamide, N-[[4-fluoro-2-[2-(4-morpholinyl)-2-oxoethoxy]phenyl]methyl]-4,6,7,9-tetrahydro-3-hydroxy-9,9-dimethyl-4-oxo-] | 2 to 100 nM
Cc1nnc(Nc2cc(F)ccc2CNC(=O)c2nc3n(c(=O)c2O)CCOC3(C)C)s1 [Example 116, Pyrimido[2,1-c][1,4]oxazine-2-carboxamide, N-[[4-fluoro-2-[(5-methyl-1,3,4-thiadiazol-2-yl)amino]phenyl]methyl]-4,6,7,9-tetrahydro-3-hydroxy-9,9-dimethyl-4-oxo-] | 2 to 100 nM
COc1cc(CNC(=O)c2nc3n(c(=O)c2O)CCOC3(C)C)ccc1O [Example 225, Pyrimido[2,1-c][1,4]oxazine-2-carboxamide, 4,6,7,9-tetrahydro-3-hydroxy-N-[(4-hydroxy-3-methoxyphenyl)methyl]-9,9-dimethyl-4-oxo-] | 2 to 100 nM
CC(C)Oc1cccc(CNC(=O)c2nc3n(c(=O)c2O)CCOC3(C)C)c1 [Example 263, Pyrimido[2,1-c][1,4]oxazine-2-carboxamide, 4,6,7,9-tetrahydro-3-hydroxy-9,9-dimethyl-N-[[3-(1-methylethoxy)phenyl]methyl]-4-oxo-] | 2 to 100 nM
COc1ccc(OC)c(CNC(=O)c2nc3n(c(=O)c2O)CCOC3(C)C)c1 [Example 235, Pyrimido[2,1-c][1,4]oxazine-2-carboxamide, N-[(2,5-dimethoxyphenyl)methyl]-4,6,7,9-tetrahydro-3-hydroxy-9,9-dimethyl-4-oxo-] | 2 to 100 nM
CC1(C)OCCCn2c1nc(C(=O)NCc1ccc(F)cc1N1CCC1=O)c(O)c2=O [Example 280, 6H-Pyrimido[2,1-c][1,4]oxazepine-2-carboxamide, N-[[4-fluoro-2-(2-oxo-1-azetidinyl)phenyl]methyl]-4,7,8,10-tetrahydro-3-hydroxy-10,10-dimethyl-4-oxo-] | 2 to 100 nM
CC1(C)OCCn2c1nc(C(=O)NCc1ccc(F)c(Cl)c1)c(O)c2=O [Example 32, Pyrimido[2,1-c][1,4]oxazine-2-carboxamide, N-[(3-chloro-4-fluorophenyl)methyl]-4,6,7,9-tetrahydro-3-hydroxy-9,9-dimethyl-4-oxo-] | 2 to 100 nM
COc1ncccc1-c1ccccc1CNC(=O)c1nc2n(c(=O)c1O)CCOC2(C)C [Example 152, Pyrimido[2,1-c][1,4]oxazine-2-carboxamide, 4,6,7,9-tetrahydro-3-hydroxy-N-[[2-(2-methoxy-3-pyridinyl)phenyl]methyl]-9,9-dimethyl-4-oxo-] | 2 to 100 nM

Reference: patent US7491819B1 (priority 2004, dated 2009)
